In US5856175A, “Device for detecting microorganisms” (priority 1996, dated 1999):

Assays:
[1] = Table 2, cited from earlier work; for pH range: acid-base indicator
Escherichia coli 33582 = experiment: Pattern of inhibition using silicone-emulsion CO2 sensors (Table 3); format: cell-based; conditions: 4 h, 37° C., 5×10^7 CFU/ml
Description: (§1) Microbial identification using the described CO2 sensors can also be based on the principle of growth inhibition. This system differs from the classical biochemical identification systems, as identification is based on selective growth inhibition by inhibitory agents, such as dyes, antibiotics, and other substances. Once again, the production of CO2 is the measure of growth. The growth pattern produced in the presence of these inhibitory agents identifies the species of the test microorganism. The amount of growth is compared with a growth control well that contains no inhibitor. A profile is derived using a two-stage quadratic discriminate analysis based on the results derived from the battery of inhibitory agents.
(§2) Microtiter plates (96 flat bottom wells) containing 0.05% xylenol blue silicone-emulsion sensors were filled with 100 microliters of microbial growth medium containing no inhibitors (growth control wells) and eighteen different dyes, antibiotics, and other inhibitory substances. Final concentrations of the inhibitors were achieved after addition of 100 microliters of inoculum (final inoculum of 5×10^7 CFU/ml) of the representative microorganisms.
(§3) After inoculating the microtiter tray, it was sealed with a pressure sensitive plastic plate sealer and initial readings were taken with a reflectance reader. The plate was then placed into a 37° C. incubator. After four hours incubation, the plate was removed and final reflectance readings were taken.

[2] = test system: Alcaligenes odorans 33585; experiment: as above; format: cell-based; conditions: 4 h, 37° C., 5×10^7 CFU/ml
Description: as §1, §2, §3

[3] = test system: Pseudomonas aeruginosa 33584; experiment: as above; format: cell-based; conditions: 4 h, 37° C., 5×10^7 CFU/ml
Description: as §1, §2, §3

Proteus mirabilis 33583 = experiment: as above; format: cell-based; conditions: 4 h, 37° C., 5×10^7 CFU/ml
Description: as §1, §2, §3

In the case of `CN(C)c1ccc(N=Nc2ccccc2)cc1` [Methyl Yellow], the pH range [1] is listed as 2.9-4.0 pH.

With `N[C@@H]1CON=C1O` [Cycloserine] the “Percent growth as compared to a growth control without antibiotics” value (Escherichia coli 33582; 78 mcg) was 13%, the “Percent growth as compared to a growth control without antibiotics” value (Escherichia coli 33582; 240 mcg) was 8% and the “Percent growth as compared to a growth control without antibiotics” value ([2]; 78 mcg) was 116%. For the same compound, the “Percent growth as compared to a growth control without antibiotics” value ([2]; 240 mcg) was 27%, the “Percent growth as compared to a growth control without antibiotics” value ([3]; 78 mcg) was 56% and the “Percent growth as compared to a growth control without antibiotics” value ([3]; 240 mcg) was 66%. The “Percent growth as compared to a growth control without antibiotics” value (Proteus mirabilis 33583; 78 mcg) was 107% and the “Percent growth as compared to a growth control without antibiotics” value (Proteus mirabilis 33583; 240 mcg) was 26%.

For `CC(=O)[O-].[Tl+]` [Thallous acetate], the “Percent growth as compared to a growth control without antibiotics” value (Escherichia coli 33582; 150 mcg) was 40%, the “Percent growth as compared to a growth control without antibiotics” value ([2]; 150 mcg) was 47% and the “Percent growth as compared to a growth control without antibiotics” value ([3]; 150 mcg) was 34%. For the same compound, the “Percent growth as compared to a growth control without antibiotics” value (Proteus mirabilis 33583; 150 mcg) was 68%.

For Azolitmin [Azolitmin (litmus)], the pH range [1] is given as 5.0-8.0 pH.

For `Cc1cc(O)c(C(C)C)cc1C1(c2cc(C(C)C)c(O)cc2C)OC(=O)c2ccccc21` [Thymolphthalein], the pH range [1] is listed as 9.3-10.5 pH.

In the case of `CN(C)c1ccc(N=Nc2ccc(S(=O)(=O)O)cc2)cc1` [Methyl orange], the pH range [1] is given as 3.1-4.4 pH.

In the case of `O=S(=O)(O)c1ccc(N=Nc2ccc(Nc3ccccc3)cc2)cc1` [Tropaeolin OO], the pH range [1] is given as 1.3-3.0 pH.

For `Cc1cc(O)c(C(C)C)cc1C1(c2cc(C(C)C)c(O)cc2C)OS(=O)(=O)c2ccccc21` [Thymol blue], the “pH range (acid range)” value [1] is given as 1.2-2.8 pH and the “pH range (basic range)” value [1] is given as 8.0-9.6 pH.

In the case of `[Cl][Co][Cl]` [Cobalt chloride], the “Percent growth as compared to a growth control without antibiotics” value (Escherichia coli 33582; 205 mcg) is reported as 27%, the “Percent growth as compared to a growth control without antibiotics” value ([2]; 205 mcg) is reported as 35% and the “Percent growth as compared to a growth control without antibiotics” value ([3]; 205 mcg) is reported as 52%. For the same compound, the “Percent growth as compared to a growth control without antibiotics” value (Proteus mirabilis 33583; 205 mcg) was 17%.

In the case of `[N-]=[N+]=[N-]` [Sodium azide], the “Percent growth as compared to a growth control without antibiotics” value (Escherichia coli 33582; 75 mcg) is reported as 6%, the “Percent growth as compared to a growth control without antibiotics” value ([2]; 75 mcg) is reported as 47% and the “Percent growth as compared to a growth control without antibiotics” value ([3]; 75 mcg) is reported as 47%. The “Percent growth as compared to a growth control without antibiotics” value (Proteus mirabilis 33583; 75 mcg) was 35%.

In the case of `CN(C)c1ccc2nc3ccc(=[N+](C)C)cc-3sc2c1` [Methylene blue], the “Percent growth as compared to a growth control without antibiotics” value (Escherichia coli 33582; 255 mcg) is reported as 20%, the “Percent growth as compared to a growth control without antibiotics” value ([2]; 255 mcg) is reported as 56% and the “Percent growth as compared to a growth control without antibiotics” value ([3]; 255 mcg) is reported as 90%. The “Percent growth as compared to a growth control without antibiotics” value (Proteus mirabilis 33583; 255 mcg) was 80%.

For `CN(C)c1ccc(C(=C2C=CC(=[N+](C)C)C=C2)c2ccccc2)cc1` [Malachite green], the “Percent growth as compared to a growth control without antibiotics” value (Escherichia coli 33582; 3 mcg) was 40%, the “Percent growth as compared to a growth control without antibiotics” value ([2]; 3 mcg) was 66% and the “Percent growth as compared to a growth control without antibiotics” value ([3]; 3 mcg) was 87%. The “Percent growth as compared to a growth control without antibiotics” value (Proteus mirabilis 33583; 3 mcg) was 107%.

For `Cc1cc(C2(c3cc(C)c(O)c(Br)c3)OS(=O)(=O)c3ccccc32)cc(Br)c1O` [Bromocresol purple], the pH range [1] is listed as 5.2-6.8 pH.

For Brilliant green, the “Percent growth as compared to a growth control without antibiotics” value (Escherichia coli 33582; 3 mcg) was 104%, the “Percent growth as compared to a growth control without antibiotics” value ([2]; 3 mcg) was 37% and the “Percent growth as compared to a growth control without antibiotics” value ([3]; 3 mcg) was 101%. The “Percent growth as compared to a growth control without antibiotics” value (Proteus mirabilis 33583; 3 mcg) was 84%.

In the case of `O=S1(=O)OC(c2ccc(O)cc2)(c2ccc(O)cc2)c2ccccc21` [Phenol red], the pH range [1] is listed as 6.8-8.4 pH.

In the case of `O=S1(=O)OC(c2ccc(O)c(Cl)c2)(c2ccc(O)c(Cl)c2)c2ccccc21` [Chlorophenol red], the pH range [1] is listed as 4.8-6.4 pH.

In the case of `Cc1cc(O)ccc1C1(c2ccc(O)cc2C)OS(=O)(=O)c2ccccc21` [m-Cresol purple], the “pH range (acid range)” value [1] is listed as 1.0-2.6 pH and the “pH range (basic range)” value [1] is listed as 7.6-9.2 pH.

For Colistin, the “Percent growth as compared to a growth control without antibiotics” value (Escherichia coli 33582; 13 mcg) was 3%, the “Percent growth as compared to a growth control without antibiotics” value ([2]; 13 mcg) was -44% and the “Percent growth as compared to a growth control without antibiotics” value ([3]; 13 mcg) was 34%. The “Percent growth as compared to a growth control without antibiotics” value (Proteus mirabilis 33583; 13 mcg) was 114%.

For `O=S1(=O)OC(c2cc(Br)c(O)c(Br)c2)(c2cc(Br)c(O)c(Br)c2)c2ccccc21` [Bromophenol blue], the pH range [1] is listed as 3.0-4.6 pH.

For `O=S(=O)(O)c1ccc(N=Nc2ccc(O)cc2O)cc1` [Tropaeolin O], the pH range [1] is given as 11.1-12.7 pH.

In the case of `Cc1cc2nc3ccc(N(C)C)cc3nc2cc1N` [Neutral red], the pH range [1] is given as 6.8-8.0 pH.

For `Nc1c(/N=N/c2ccc(-c3ccc(/N=N/c4cc(S(=O)(=O)O)c5ccccc5c4N)cc3)cc2)cc(S(=O)(=O)O)c2ccccc12` [Congo red], the pH range [1] is given as 3.0-5.0 pH.

For `CN(C)c1ccc(/N=N/c2ccccc2C(=O)O)cc1` [Methyl red], the pH range [1] is given as 4.2-6.3 pH.

In the case of `O=S1(=O)OC(c2cc(Br)c(O)c(Br)c2)(c2cc(Br)c(O)c(Br)c2)c2c(Br)c(Br)c(Br)c(Br)c21` [Tetrabromophenol blue], the pH range [1] is listed as 3.0-4.6 pH.

In the case of `CO[C@@H]1[C@@H](OC(N)=O)[C@@H](O)[C@H](Oc2ccc3c(O)c(NC(=O)c4ccc(O)c(CC=C(C)C)c4)c(=O)oc3c2C)OC1(C)C` [Novobiocin], the “Percent growth as compared to a growth control without antibiotics” value (Escherichia coli 33582; 48 mcg) is reported as 9%, the “Percent growth as compared to a growth control without antibiotics” value ([2]; 48 mcg) is reported as 16% and the “Percent growth as compared to a growth control without antibiotics” value ([3]; 48 mcg) is reported as 85%. The “Percent growth as compared to a growth control without antibiotics” value (Proteus mirabilis 33583; 48 mcg) was 48%.

In the case of `CC(=O)OCC1=C(C(=O)O)N2C(=O)[C@@H](NC(=O)Cc3cccs3)[C@H]2SC1` [Cephalothin], the “Percent growth as compared to a growth control without antibiotics” value (Escherichia coli 33582; 13.5 mcg) is reported as 53%, the “Percent growth as compared to a growth control without antibiotics” value ([2]; 13.5 mcg) is reported as 66% and the “Percent growth as compared to a growth control without antibiotics” value ([3]; 13.5 mcg) is reported as 108%. The “Percent growth as compared to a growth control without antibiotics” value (Proteus mirabilis 33583; 13.5 mcg) was 26%.

For `O=C1OC(c2ccc(O)cc2)(c2ccc(O)cc2)c2ccccc21` [Phenolphthalein], the pH range [1] is listed as 8.3-10.0 pH.

For `Cc1c(C2(c3cc(Br)c(O)c(Br)c3C)OS(=O)(=O)c3ccccc32)cc(Br)c(O)c1Br` [Bromocresol green (blue), Bromocresol green], the pH range [1] is given as 3.6-5.2 pH.

For Alizarin yellow, the pH range [1] is listed as 10.1-12.0 pH.

For `CCCCCCCCCCCCN` [Dodecylamine], the “Percent growth as compared to a growth control without antibiotics” value (Escherichia coli 33582; 18.75 mcg) was 99%, the “Percent growth as compared to a growth control without antibiotics” value ([2]; 18.75 mcg) was 106% and the “Percent growth as compared to a growth control without antibiotics” value ([3]; 18.75 mcg) was 118%. The “Percent growth as compared to a growth control without antibiotics” value (Proteus mirabilis 33583; 18.75 mcg) was 108%.

In the case of `[O-][n+]1ccccc1SSc1cccc[n+]1[O-]` [Omadine disulfide], the “Percent growth as compared to a growth control without antibiotics” value (Escherichia coli 33582; 5.5 mcg) is reported as 10%, the “Percent growth as compared to a growth control without antibiotics” value ([2]; 5.5 mcg) is reported as 36% and the “Percent growth as compared to a growth control without antibiotics” value ([3]; 5.5 mcg) is reported as 94%. The “Percent growth as compared to a growth control without antibiotics” value (Proteus mirabilis 33583; 5.5 mcg) was 71%.

For Acriflavine, the “Percent growth as compared to a growth control without antibiotics” value (Escherichia coli 33582; 30 mcg) was 5%, the “Percent growth as compared to a growth control without antibiotics” value ([2]; 30 mcg) was 55% and the “Percent growth as compared to a growth control without antibiotics” value ([3]; 30 mcg) was 84%. The “Percent growth as compared to a growth control without antibiotics” value (Proteus mirabilis 33583; 30 mcg) was 68%.

In the case of `Cc1cc(C2(c3ccc(O)c(C)c3)OS(=O)(=O)c3ccccc32)ccc1O` [Cresol red], the “pH range (acid range)” value [1] is listed as 0.2-1.8 pH and the “pH range (basic range)” value [1] is listed as 7.2-8.8 pH.

In the case of `O=c1[nH]c(=O)n([C@H]2C[C@H](O)[C@@H](CO)O2)cc1F` [Floxuridine], the “Percent growth as compared to a growth control without antibiotics” value (Escherichia coli 33582; 36 mcg) is reported as 55%, the “Percent growth as compared to a growth control without antibiotics” value ([2]; 36 mcg) is reported as 75% and the “Percent growth as compared to a growth control without antibiotics” value ([3]; 36 mcg) is reported as 79%. The “Percent growth as compared to a growth control without antibiotics” value (Proteus mirabilis 33583; 36 mcg) was 35%.

In the case of `CC1(C)S[C@@H]2[C@H](NC(=O)C(C(=O)O)c3ccccc3)C(=O)N2[C@H]1C(=O)O` (some centres unmarked) [Carbenicillin], the “Percent growth as compared to a growth control without antibiotics” value (Escherichia coli 33582; 40 mcg) is reported as 54%, the “Percent growth as compared to a growth control without antibiotics” value ([2]; 40 mcg) is reported as 77% and the “Percent growth as compared to a growth control without antibiotics” value ([3]; 40 mcg) is reported as 89%. The “Percent growth as compared to a growth control without antibiotics” value (Proteus mirabilis 33583; 40 mcg) was 69%.

In the case of `Cc1c(C2(c3cc(C(C)C)c(O)c(Br)c3C)OS(=O)(=O)c3ccccc32)cc(C(C)C)c(O)c1Br` [Bromothymol blue], the pH range [1] is listed as 6.0-7.6 pH.

For `O=C(O)c1cc(Br)cc(Br)c1O` [Dibromosalicyclic acid], the “Percent growth as compared to a growth control without antibiotics” value (Escherichia coli 33582; 750 mcg) was 83%, the “Percent growth as compared to a growth control without antibiotics” value ([2]; 750 mcg) was 25% and the “Percent growth as compared to a growth control without antibiotics” value ([3]; 750 mcg) was 88%. For the same compound, the “Percent growth as compared to a growth control without antibiotics” value (Proteus mirabilis 33583; 750 mcg) was 38%.
